Reference: PubChem BioAssay AID1013 (Columbia University Molecular Screening Center, 2008)
Active and inactive are the calls of the source. The rule behind the calls is not given here.

Experiments:
[1] = blockers of VCAM1 upregulation by TNFa – imaging, TNFa stimulus, retest and dose response, confirmation (AID 1013); settings: TNFa-stimulated cells, VCAM1 expression imaging; cell count; at 10 µM; stronger effect = lower value;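 for cell count: compound on cells 1 h before TNFa then 24 h more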
[2] = test system: TNFa-stimulated cells, VCAM1 expression imaging; assay: as above

Row | Compound | cell count [1] [%] | IC50 [2]
1 | COc1cc(C2C(C#N)=C(N)Oc3cc(N(C)C)ccc32)cc2c1OCO2 (configuration not stated) | 47.6 | 5.11 µM
2 | Cc1cccc2cc(C#N)c(SCC(=O)N3CC(=O)Nc4ccccc43)nc12 | 110 | > 10 µM (inactive)
3 | Cc1cccc(OCC(=O)Nc2cc(C)ccc2O)c1 | 91.2 | 0.452 µM
4 | Cc1ccc(-n2ncc3c(N4CCN(c5ccccc5)CC4)ncnc32)c(C)c1 | 111 | > 10 µM (inactive)
5 | O=C1c2cccc3c([N+](=O)[O-])ccc(c23)C(=O)N1c1ccc(Cl)cn1 | 103 | > 10 µM (inactive)
6 | CCc1ccc2oc(-c3cc(N)ccc3O)nc2c1 | 97.7 | > 10 µM (inactive)
7 | CCC1=Nc2cc(C(=O)NCCCOC)ccc2Sc2ccccc21 | 34.9 | 1.67 µM
8 | CCN(CC)c1ccc2c(c1)OC(N)=C(C#N)C2c1cccnc1 (configuration not stated) | 29.8 | 0.38 µM
9 | Cc1cccc(NC(=O)CSc2nc3ccc(NC(=O)CSc4nnnn4-c4ccccc4)cc3s2)c1C | 107 | > 10 µM (inactive)
10 | CC1=CC(C)(C)N(S(=O)(=O)c2ccc(C)cc2)c2cc(C)ccc21 | 113 | > 10 µM (inactive)
11 | Nc1nnnn1/N=C/C(Br)=C/c1ccccc1 | 106 | > 10 µM (inactive)
12 | CCN(CC)c1ccc(C2=NNC(=O)CC2C)cc1[N+](=O)[O-] (configuration not stated) | 50.8 | 0.0384 µM
13 | O=C(c1ccc([N+](=O)[O-])cc1)N(Cc1ccc(Cl)cc1)N1C(=O)CCCC1=O | 91.5 | > 10 µM (inactive)
14 | O=C(Nc1ccccc1)c1nnsc1S(=O)c1ccc(Cl)cc1 (configuration not stated) | 95.6 | > 10 µM (inactive)
15 | Cc1ccc(C(=O)c2cc([N+](=O)[O-])ccc2N2CCOCC2)c(C)c1 | 41.4 | 2.86 µM
16 | O=C1C(=O)c2ccc(-c3ccccc3)cc2-c2ccccc21 | 109 | > 10 µM (inactive)

Row | Compound | cell count [1] [%] | IC50 [2]
17 | Cc1ccc2[nH]c(-c3ccccc3)cc(=O)c2c1 | 63.3 | 4.49 µM
18 | Cn1cc(/C=N/n2cnc3scc(-c4ccc(Cl)cc4)c3c2=O)c2ccccc21 | 88.1 | > 10 µM (inactive)
19 | CC1=C([N+](=O)[O-])C(c2ccccc2)C2=C(N1)c1ccccc1C2=O (configuration not stated) | 111 | > 10 µM (inactive)
20 | O=C(COC(=O)c1ccccc1C(=O)c1ccc(Cl)c([N+](=O)[O-])c1)NC1CCCCCC1 | 91 | > 10 µM (inactive)
21 | N#CC1=C(N)Oc2c(ccc3ccccc23)C1c1cccs1 (configuration not stated) | 69.2 | > 10 µM (inactive)
22 | COc1ccc(-c2cc3ccccc3oc2=O)cc1NC(=O)c1ccc([N+](=O)[O-])o1 | 107 | > 10 µM (inactive)
23 | CCSc1nc2ccccc2n1C(=O)/C=C\c1ccc(OC)c(OC)c1 | 98.3 | > 10 µM (inactive)
24 | COc1ccc(C(=O)C(CN2CCOCC2)c2ccccc2)cc1 (configuration not stated) | 73.8 | 2.68 µM
25 | COC(=O)c1ccccc1NC(=O)Cn1c(-c2nonc2N)nc2ccccc21 | 104 | > 10 µM (inactive)
26 | CCc1ccc(C(=O)/C=C/c2ccc([N+](=O)[O-])o2)cc1 | 94.9 | > 10 µM (inactive)
27 | N=c1c2c(-c3ccccc3)c(-c3ccccc3)n(Cc3ccccc3)c2ncn1CCCn1ccnc1 | 56.8 | 1.06 µM
28 | O=S(=O)(c1ccc2c(c1)C(=NO)c1cc(S(=O)(=O)N3CCCCC3)ccc1-2)N1CCCCC1 | 118 | > 10 µM (inactive)
29 | Cc1cc(=O)oc2cc(OCC3CC(c4ccccc4Cl)=NO3)ccc12 (configuration not stated) | 106 | > 10 µM (inactive)
30 | Cc1cc(NC(=O)CSc2nc3ccccc3c(=O)n2C2CCCC2)no1 | 111 | > 10 µM (inactive)
31 | O=C(OCn1ncc(Br)c(Br)c1=O)c1ccc(F)cc1 | 2.02 | 2.86 µM
